The term EC50 denotes the concentration needed to bring the measured effect to its halfway point. A high value points to weaker potency.

The assay concerns the target T1, human GPR119 (Homo sapiens, UniProt Q8TDV5).
T1 construct: expressed in transfected cells; host or cells: HEK293 (transient transfection, Lipofectamine 2000)
T1 sequence (Q8TDV5 1-335): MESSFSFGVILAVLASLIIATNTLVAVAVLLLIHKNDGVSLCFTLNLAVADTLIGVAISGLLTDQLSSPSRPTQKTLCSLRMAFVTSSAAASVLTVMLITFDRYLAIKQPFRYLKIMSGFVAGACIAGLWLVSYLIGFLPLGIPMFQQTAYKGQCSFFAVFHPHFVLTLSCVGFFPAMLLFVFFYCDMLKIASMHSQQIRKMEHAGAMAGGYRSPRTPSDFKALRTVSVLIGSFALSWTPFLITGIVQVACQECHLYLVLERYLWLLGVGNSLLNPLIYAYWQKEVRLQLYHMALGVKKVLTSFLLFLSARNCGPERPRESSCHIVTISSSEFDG
Nature of the assay: In vitro cyclic AMP assay (Cisbio HTRF) in HEK293 cells transfected with human GPR119. Particulars: cAMP; for activation at 10 µM: 1 h, % Induction @ 10 μM; for EC50: Emax varies between 65 to 80%. The format is cell-based. As to the method:
A. In Vitro Cyclic AMP Assay:
cAMP measurements were done using a Cisbio dynamic 2 HTRF kit (Cisbio, Bedford, Mass.) according to the manufacturer's protocol. Briefly, HEK293 cells (0.2×10^6/well) were plated in a 24 well plate and incubated overnight at 37° C. Cells were transfected with either empty vector DNA or human GPR119 expression plasmid DNA using Lipofectamine 2000 (Invitrogen). After 24 h, transfected cells were harvested, counted and plated at 1000 cells/5 ul in a black 384 welled small volume plate. Cells were treated with desired concentrations of compounds and incubated for 60 min at room temperature. Lysis buffer containing cAMP-d2 and cryptate conjugate were added and incubated for 1 h. HRTF ratio was measured on a microplate reader (BMG Labtech., Germany) at an excitation wavelength of 337 nm and emission wavelengths of 665 and 620 nm with an integration time of 400 μsec. Data were analyzed using Graphpad Prism (Graphpad software; San Diego Calif.) for EC50 determination.
The results are as given in Table I as % Induction@ 10 μM, Table II as % Induction@ 10 μM and EC 50 in nM

Under “Table II”, `CC(C)OC(=O)N1CCC(c2ccc3oc(-c4ccc(C(F)(F)F)cc4)nc3c2)CC1` [EXAMPLE-77, Isopropyl 4-{2-[4-(trifluoromethyl)phenyl]benzo[d]oxazol-5-yl}piperidine-1-carboxylate] registered an activation at 10 µM of 80.4% and an EC50 of 50 to 250 nM. With `CC(C)(C)OC(=O)N1CCC(c2nc3cc(-c4ccc(C(N)=O)c(F)c4)ccc3o2)CC1` [EXAMPLE-21, Tert-butyl 4-[5-(4-carbamoyl-3-fluorophenyl)benzo[d]oxazol-2-yl]piperidine-1-carboxylate], where the note is “Table I”, the activation at 10 µM was determined as 59% and the EC50 is 50 to 100 nM.

Consider `CCCS(=O)(=O)N1CCC(c2nc3cc(-c4ccc(C(N)=O)c(F)c4)ccc3o2)CC1` [EXAMPLE-53, 2-fluoro-4-{2-[1-(propylsulfonyl)piperidin-4-yl]benzo[d]oxazol-5-yl}benzamide], for which, where the note is “Table I”, the activation at 10 µM is 39.9%. Where the note is “Table I”, `CC(C)(C)OC(=O)N1CCC(c2nc3cc(-c4ccc(S(C)(=O)=O)cc4F)ccc3o2)CC1` [EXAMPLE-4, tert-butyl 4-{5-[2-fluoro-4-(methylsulfonyl)phenyl]benzo[d]oxazol-2-yl}piperidine-1-carboxylate] yielded an activation at 10 µM of 74.2% and an EC50 of 50 to 100 nM.

For `CC(C)(C)OC(=O)N1CCC(c2nc3cc(-c4ccc(-n5cnnn5)cc4)ccc3o2)CC1` [EXAMPLE-11, Tert-butyl 4-{5-[4-(1H-tetrazol-1-yl)phenyl]benzo[d]oxazol-2-yl}piperidine-1-carboxylate], the activation at 10 µM (Table I) is 70.1%. Where the note is “Table II”, `CC(C)(C)OC(=O)N1CCC(c2ccc3sc(-c4ccc(S(C)(=O)=O)cc4F)nc3c2)CC1` [EXAMPLE-68, Tert-butyl 4-{2-[2-fluoro-4-(methylsulfonyl)phenyl]benzo[d]thiazol-5-yl}piperidine-1-carboxylate] returned an activation at 10 µM of 72.7%. Where the note is “Table I”, `CC(C)OC(=O)N1CCC(c2nc3cc(-c4ccc(C(N)=O)c(Cl)c4)ccc3o2)CC1` [EXAMPLE-30, Isopropyl 4-[5-(4-carbamoyl-3-chlorophenyl)benzo[d]oxazol-2-yl]piperidine-1-carboxylate] had an activation at 10 µM of 62.2% and an EC50 of 500 to 1000 nM.

Consider `CCOC(=O)N1CCC(c2ccc3oc(-c4ccc(S(C)(=O)=O)cc4F)nc3c2)CC1` [EXAMPLE-69, Ethyl 4-{2-[2-fluoro-4-(methylsulfonyl)phenyl]benzo[d]oxazol-5-yl}piperidine-1-carboxylate], for which, for the setting “Table II”, the activation at 10 µM amounted to 71.8% and the EC50 was in the range of 25 to 50 nM.

Under “Table II”, `CS(=O)(=O)c1ccc(-c2nc3cc(C4CCN(S(=O)(=O)CCCO)CC4)ccc3o2)c(F)c1` [EXAMPLE-80, 3-{4-[2-(2-fluoro-4-(methylsulfonyl)phenyl)benzo[d]oxazol-5-yl]piperidin-1-ylsulfonyl}propan-1-ol] came in with an activation at 10 µM of 26.4%. Take `CC(C)OC(=O)N1CCC(c2ccc3nc(-c4ccc(S(C)(=O)=O)cc4F)oc3c2)CC1` [EXAMPLE-71, Isopropyl 4-{2-[2-fluoro-4-(methylsulfonyl)phenyl]benzo[d]oxazol-6-yl}piperidine-1-carboxylate]: where the note is “Table II”, the activation at 10 µM was determined as 76.6% and the EC50 is no more than 25 nM.

For the molecule `CS(=O)(=O)c1ccc(-c2nc3cc(C4CCNCC4)ccc3o2)c(F)c1` [EXAMPLE-61, 2-[2-fluoro-4-(methylsulfonyl)phenyl]-5-(piperidin-4-yl)benzo[d]oxazole 2,2,2-trifluoroacetate], under “Table II”, the activation at 10 µM amounted to 29.8%. Under “Table I”, `CC(C)OC(=O)N1CCC(c2nc3cc(-c4ccc(C(F)F)cc4)ccc3o2)CC1` [EXAMPLE-29, Isopropyl 4-{5-[4-(difluoromethyl)phenyl]benzo[d]oxazol-2-yl}piperidine-1-carboxylate] returned an activation at 10 µM of 78.6% and an EC50 of 25 to 50 nM. The molecule `CC(C)OC(=O)N1CCC(c2nc3cc(-c4ccc(C=O)cc4)ccc3o2)CC1` [EXAMPLE-28, Isopropyl 4-[5-(4-formylphenyl)benzo[d]oxazol-2-yl]piperidine-1-carboxylate] gave an activation at 10 µM (Table I) of 45.4%.

(Values after patent US9181214B2 (RHIZEN PHARMACEUTICALS SA, priority 2011, dated 2015).)
